PMC5374441 (Scientific Reports, 2017)
Read-outs that look alike come from different tables or passages of the source. Bridge positions count the residues as written; N and C are the ends. Peptide text beside a SMILES is read from it.

Key:
Test in all cases: biochemical
Format in all cases: binding
Ls-AChBP = molecular target: T1, Ls-AChBP (Lymnaea stagnalis, UniProt P58154)
T1 construct: made in house

Ac-AChBP = molecular target: T2, Ac-AChBP (Aplysia californica, UniProt Q8WSF8); settings: SEM
T2 construct: made in house

Q55K Ls-AChBP mutant = molecular target: T3, Q55K Ls-AChBP mutant (Lymnaea stagnalis, UniProt P58154, Q74K)
T3 construct: made in house; Top10 E. coli is named only for plasmid propagation

Row | SMILES | IC50 (Ls-AChBP) [µM] | activity at Ls-AChBP (in words) (Ls-AChBP) | IC50 (Ac-AChBP) [µM] | IC50 (Q55K Ls-AChBP mutant) [µM] | IC50 (Ls-AChBP; SEM) [µM] | IC50 (Q55K Ls-AChBP mutant; SEM) [µM]
1 | CC[C@H](C)[C@@H]1NC(=O)[C@H](CC(N)=O)NC(=O)[C@@H]2CCCN2C(=O)[C@H](CC(N)=O)NC(=O)[C@H](CC(N)=O)NC(=O)[C@H](C(C)C)NC(=O)[C@H](CC(=O)O)NC(=O)[C@@H]2CSSC[C@H](NC(=O)CNC(=O)[C@@H](N)CO)C(=O)N[C@@H](CSSC[C@@H](C(N)=O)NC1=O)C(=O)N[C@@H](CO)C(=O)N[C@@H](CC(N)=O)C(=O)N1CCC[C@H]1C(=O)N[C@@H](C)C(=O)N2 [R10D-LsIA] (H-SGCCSNPACDVNNPNIC-NH2; disulfide 3-9, 4-17) | > 10 | inactive | 8.37 | > 10 |  | 
2 | CC[C@H](C)[C@@H]1NC(=O)[C@H](CC(N)=O)NC(=O)[C@@H]2CCCN2C(=O)[C@H](CC(N)=O)NC(=O)[C@H](CC(=O)O)NC(=O)[C@H](C(C)C)NC(=O)[C@H](CCCNC(=N)N)NC(=O)[C@@H]2CSSC[C@H](NC(=O)CNC(=O)[C@@H](N)CO)C(=O)N[C@@H](CSSC[C@@H](C(N)=O)NC1=O)C(=O)N[C@@H](CO)C(=O)N[C@@H](CC(N)=O)C(=O)N1CCC[C@H]1C(=O)N[C@@H](C)C(=O)N2 [N12D-LsIA] (H-SGCCSNPACRVDNPNIC-NH2; disulfide 3-9, 4-17) | > 10 |  | 5.55 |  |  | 
3 | CC[C@H](C)[C@@H]1NC(=O)[C@H](CC(N)=O)NC(=O)[C@@H]2CCCN2C(=O)[C@H](CC(N)=O)NC(=O)[C@H](CCC(N)=O)NC(=O)[C@H](C(C)C)NC(=O)[C@H](CCCNC(=N)N)NC(=O)[C@@H]2CSSC[C@H](NC(=O)CNC(=O)[C@@H](N)CO)C(=O)N[C@@H](CSSC[C@@H](C(N)=O)NC1=O)C(=O)N[C@@H](CO)C(=O)N[C@@H](CC(N)=O)C(=O)N1CCC[C@H]1C(=O)N[C@@H](C)C(=O)N2 [N12Q-LsIA] (H-SGCCSNPACRVQNPNIC-NH2; disulfide 3-9, 4-17) |  |  | 0.0552 ± 0.0009 |  | 2.44 ± 0.75 | 
4 | CC[C@H](C)[C@@H]1NC(=O)[C@H](CC(N)=O)NC(=O)[C@@H]2CCCN2C(=O)[C@H](CC(N)=O)NC(=O)[C@H](CC(N)=O)NC(=O)[C@H](C(C)C)NC(=O)[C@H](CCSC)NC(=O)[C@@H]2CSSC[C@H](NC(=O)CNC(=O)[C@@H](N)CO)C(=O)N[C@@H](CSSC[C@@H](C(N)=O)NC1=O)C(=O)N[C@@H](CO)C(=O)N[C@@H](CC(N)=O)C(=O)N1CCC[C@H]1C(=O)N[C@@H](C)C(=O)N2 [R10M-LsIA] (H-SGCCSNPACMVNNPNIC-NH2; disulfide 3-9, 4-17) |  |  | 0.00188 ± 0.00065 |  | 0.5 ± 0.16 | 7.1 ± 2.5
5 | CC[C@H](C)[C@@H]1NC(=O)[C@H](CC(N)=O)NC(=O)[C@@H]2CCCN2C(=O)[C@H](CC(N)=O)NC(=O)[C@H](CC(N)=O)NC(=O)[C@H](C(C)C)NC(=O)[C@H](Cc2ccccc2)NC(=O)[C@@H]2CSSC[C@H](NC(=O)CNC(=O)[C@@H](N)CO)C(=O)N[C@@H](CSSC[C@@H](C(N)=O)NC1=O)C(=O)N[C@@H](CO)C(=O)N[C@@H](CC(N)=O)C(=O)N1CCC[C@H]1C(=O)N[C@@H](C)C(=O)N2 [R10F-LsIA] (H-SGCCSNPACFVNNPNIC-NH2; disulfide 3-9, 4-17) |  |  | 0.0022 ± 5e-05 |  | 0.11 ± 0.02 | 0.8 ± 0.26
6 | CC[C@H](C)[C@@H]1NC(=O)[C@H](CC(N)=O)NC(=O)[C@@H]2CCCN2C(=O)[C@H](CC(N)=O)NC(=O)[C@H](CC(C)C)NC(=O)[C@H](C(C)C)NC(=O)[C@H](CCCNC(=N)N)NC(=O)[C@@H]2CSSC[C@H](NC(=O)CNC(=O)[C@@H](N)CO)C(=O)N[C@@H](CSSC[C@@H](C(N)=O)NC1=O)C(=O)N[C@@H](CO)C(=O)N[C@@H](CC(N)=O)C(=O)N1CCC[C@H]1C(=O)N[C@@H](C)C(=O)N2 [N12L-LsIA] (H-SGCCSNPACRVLNPNIC-NH2; disulfide 3-9, 4-17) | > 10 |  | 0.061 ± 0.007 |  |  | 
